Key:
Conditions in all cases: Compound concentration 10 µM
[1] = biological target: Beta-2 adrenergic receptor (Homo sapiens) (UniProt P07550)
Description: PDSP Primary Binding target: ADRB2 - Compounds are tested at 10 uM concentration, plate are incubated at room temperature in the dark for 90 minutes. Reaction are stopped by vacuum filtration onto 0.3% polyethyleneimine soaked filter mats using Filtermate harvester. Scintilation cocktail is then melted onto microwave-dried filters on a hot plate and the radio activity is counted in Microbia counter.

[2] = biological target: T1, Muscarinic acetylcholine receptor M1 (Homo sapiens) (UniProt P11229)
T1 sequence (whole entry): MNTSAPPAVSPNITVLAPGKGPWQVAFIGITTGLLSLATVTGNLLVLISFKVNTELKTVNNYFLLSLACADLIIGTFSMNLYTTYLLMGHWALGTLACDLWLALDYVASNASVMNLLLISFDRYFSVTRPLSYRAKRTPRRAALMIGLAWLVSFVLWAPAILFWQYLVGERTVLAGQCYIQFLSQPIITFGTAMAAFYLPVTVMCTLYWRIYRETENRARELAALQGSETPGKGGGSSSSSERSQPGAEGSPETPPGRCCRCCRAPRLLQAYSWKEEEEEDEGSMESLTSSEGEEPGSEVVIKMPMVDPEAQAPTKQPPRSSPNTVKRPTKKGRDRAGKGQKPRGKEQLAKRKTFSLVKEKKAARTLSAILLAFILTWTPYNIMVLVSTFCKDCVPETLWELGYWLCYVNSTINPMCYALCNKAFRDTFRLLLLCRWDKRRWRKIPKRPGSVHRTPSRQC
Description: PDSP Primary Binding target: CHRM1 - Compounds are tested at 10 uM concentration, plate are incubated at room temperature in the dark for 90 minutes. Reaction are stopped by vacuum filtration onto 0.3% polyethyleneimine soaked filter mats using Filtermate harvester. Scintilation cocktail is then melted onto microwave-dried filters on a hot plate and the radio activity is counted in Microbia counter.

[3] = biological target: D(1A) dopamine receptor (Homo sapiens) (UniProt P21728)
Description: PDSP Primary Binding target: DRD1 - Compounds are tested at 10 uM concentration, plate are incubated at room temperature in the dark for 90 minutes. Reaction are stopped by vacuum filtration onto 0.3% polyethyleneimine soaked filter mats using Filtermate harvester. Scintilation cocktail is then melted onto microwave-dried filters on a hot plate and the radio activity is counted in Microbia counter.

[4] = biological target: D(3) dopamine receptor (Homo sapiens) (UniProt P35462)
Description: PDSP Primary Binding target: DRD3 - Compounds are tested at 10 uM concentration, plate are incubated at room temperature in the dark for 90 minutes. Reaction are stopped by vacuum filtration onto 0.3% polyethyleneimine soaked filter mats using Filtermate harvester. Scintilation cocktail is then melted onto microwave-dried filters on a hot plate and the radio activity is counted in Microbia counter.

[5] = biological target: 5-hydroxytryptamine receptor 1E (Homo sapiens) (UniProt P28566)
Description: PDSP Primary Binding target: HTR1E - Compounds are tested at 10 uM concentration, plate are incubated at room temperature in the dark for 90 minutes. Reaction are stopped by vacuum filtration onto 0.3% polyethyleneimine soaked filter mats using Filtermate harvester. Scintilation cocktail is then melted onto microwave-dried filters on a hot plate and the radio activity is counted in Microbia counter.

[6] = biological target: 5-hydroxytryptamine receptor 2A (Homo sapiens) (UniProt P28223)
Description: PDSP Primary Binding target: HTR2A - Compounds are tested at 10 uM concentration, plate are incubated at room temperature in the dark for 90 minutes. Reaction are stopped by vacuum filtration onto 0.3% polyethyleneimine soaked filter mats using Filtermate harvester. Scintilation cocktail is then melted onto microwave-dried filters on a hot plate and the radio activity is counted in Microbia counter.

[7] = biological target: 5-hydroxytryptamine receptor 2B (Homo sapiens) (UniProt P41595)
Description: PDSP Primary Binding target: HTR2B - Compounds are tested at 10 uM concentration, plate are incubated at room temperature in the dark for 90 minutes. Reaction are stopped by vacuum filtration onto 0.3% polyethyleneimine soaked filter mats using Filtermate harvester. Scintilation cocktail is then melted onto microwave-dried filters on a hot plate and the radio activity is counted in Microbia counter.

[8] = biological target: 5-hydroxytryptamine receptor 6 (Homo sapiens) (UniProt P50406)
Description: PDSP Primary Binding target: HTR6 - Compounds are tested at 10 uM concentration, plate are incubated at room temperature in the dark for 90 minutes. Reaction are stopped by vacuum filtration onto 0.3% polyethyleneimine soaked filter mats using Filtermate harvester. Scintilation cocktail is then melted onto microwave-dried filters on a hot plate and the radio activity is counted in Microbia counter.

[9] = biological target: Mu-type opioid receptor (Homo sapiens) (UniProt P35372)
Description: PDSP Primary Binding target: OPRM1 - Compounds are tested at 10 uM concentration, plate are incubated at room temperature in the dark for 90 minutes. Reaction are stopped by vacuum filtration onto 0.3% polyethyleneimine soaked filter mats using Filtermate harvester. Scintilation cocktail is then melted onto microwave-dried filters on a hot plate and the radio activity is counted in Microbia counter.

[10] = biological target: Beta-3 adrenergic receptor (Homo sapiens) (UniProt P13945)
Description: PDSP Primary Binding target: ADRB3 - Compounds are tested at 10 uM concentration, plate are incubated at room temperature in the dark for 90 minutes. Reaction are stopped by vacuum filtration onto 0.3% polyethyleneimine soaked filter mats using Filtermate harvester. Scintilation cocktail is then melted onto microwave-dried filters on a hot plate and the radio activity is counted in Microbia counter.

[11] = biological target: T2, Alpha-2A adrenergic receptor (Homo sapiens) (UniProt P08913)
T2 sequence (whole entry): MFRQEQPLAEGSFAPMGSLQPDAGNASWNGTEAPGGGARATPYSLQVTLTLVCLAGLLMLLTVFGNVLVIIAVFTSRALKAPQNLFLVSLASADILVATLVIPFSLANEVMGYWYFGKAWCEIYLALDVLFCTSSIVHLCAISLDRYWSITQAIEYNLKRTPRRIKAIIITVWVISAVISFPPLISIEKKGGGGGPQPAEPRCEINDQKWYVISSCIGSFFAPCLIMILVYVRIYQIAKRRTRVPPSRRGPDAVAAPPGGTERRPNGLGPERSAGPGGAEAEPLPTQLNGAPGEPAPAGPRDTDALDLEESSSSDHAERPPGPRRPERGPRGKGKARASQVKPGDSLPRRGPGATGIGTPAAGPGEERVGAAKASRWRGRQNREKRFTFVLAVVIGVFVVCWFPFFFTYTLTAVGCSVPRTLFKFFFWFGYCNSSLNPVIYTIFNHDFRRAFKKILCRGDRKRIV
Description: PDSP Primary Binding target: ADRA2A - Compounds are tested at 10 uM concentration, plate are incubated at room temperature in the dark for 90 minutes. Reaction are stopped by vacuum filtration onto 0.3% polyethyleneimine soaked filter mats using Filtermate harvester. Scintilation cocktail is then melted onto microwave-dried filters on a hot plate and the radio activity is counted in Microbia counter.

[12] = biological target: T3, Muscarinic acetylcholine receptor M5 (Homo sapiens) (UniProt P08912)
T3 sequence (whole entry): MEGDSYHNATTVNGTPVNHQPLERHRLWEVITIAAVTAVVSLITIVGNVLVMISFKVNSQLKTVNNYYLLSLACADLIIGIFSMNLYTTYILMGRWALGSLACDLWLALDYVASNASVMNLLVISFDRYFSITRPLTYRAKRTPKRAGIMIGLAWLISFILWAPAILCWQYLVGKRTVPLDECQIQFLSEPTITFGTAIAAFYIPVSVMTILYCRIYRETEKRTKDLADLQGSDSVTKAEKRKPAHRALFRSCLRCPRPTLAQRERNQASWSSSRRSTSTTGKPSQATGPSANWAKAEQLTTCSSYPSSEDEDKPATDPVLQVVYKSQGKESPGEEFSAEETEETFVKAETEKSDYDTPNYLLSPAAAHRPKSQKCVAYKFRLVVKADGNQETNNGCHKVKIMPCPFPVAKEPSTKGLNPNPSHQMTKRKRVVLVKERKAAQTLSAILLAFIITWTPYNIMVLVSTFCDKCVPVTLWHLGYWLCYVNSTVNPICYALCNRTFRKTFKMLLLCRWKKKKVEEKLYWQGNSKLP
Description: PDSP Primary Binding target: CHRM5 - Compounds are tested at 10 uM concentration, plate are incubated at room temperature in the dark for 90 minutes. Reaction are stopped by vacuum filtration onto 0.3% polyethyleneimine soaked filter mats using Filtermate harvester. Scintilation cocktail is then melted onto microwave-dried filters on a hot plate and the radio activity is counted in Microbia counter.

[13] = biological target: Sigma intracellular receptor 2 (Homo sapiens) (UniProt Q5BJF2)
Description: PDSP Primary Binding target: TMEM97 - Compounds are tested at 10 uM concentration, plate are incubated at room temperature in the dark for 90 minutes. Reaction are stopped by vacuum filtration onto 0.3% polyethyleneimine soaked filter mats using Filtermate harvester. Scintilation cocktail is then melted onto microwave-dried filters on a hot plate and the radio activity is counted in Microbia counter.

[14] = biological target: Beta-1 adrenergic receptor (Homo sapiens) (UniProt P08588)
Description: PDSP Primary Binding target: ADRB1 - Compounds are tested at 10 uM concentration, plate are incubated at room temperature in the dark for 90 minutes. Reaction are stopped by vacuum filtration onto 0.3% polyethyleneimine soaked filter mats using Filtermate harvester. Scintilation cocktail is then melted onto microwave-dried filters on a hot plate and the radio activity is counted in Microbia counter.

[15] = biological target: 5-hydroxytryptamine receptor 1D (Homo sapiens) (UniProt P28221)
Description: PDSP Primary Binding target: HTR1D - Compounds are tested at 10 uM concentration, plate are incubated at room temperature in the dark for 90 minutes. Reaction are stopped by vacuum filtration onto 0.3% polyethyleneimine soaked filter mats using Filtermate harvester. Scintilation cocktail is then melted onto microwave-dried filters on a hot plate and the radio activity is counted in Microbia counter.

[16] = biological target: T4, 5-hydroxytryptamine receptor 3A (Homo sapiens) (UniProt P46098)
T4 sequence (whole entry): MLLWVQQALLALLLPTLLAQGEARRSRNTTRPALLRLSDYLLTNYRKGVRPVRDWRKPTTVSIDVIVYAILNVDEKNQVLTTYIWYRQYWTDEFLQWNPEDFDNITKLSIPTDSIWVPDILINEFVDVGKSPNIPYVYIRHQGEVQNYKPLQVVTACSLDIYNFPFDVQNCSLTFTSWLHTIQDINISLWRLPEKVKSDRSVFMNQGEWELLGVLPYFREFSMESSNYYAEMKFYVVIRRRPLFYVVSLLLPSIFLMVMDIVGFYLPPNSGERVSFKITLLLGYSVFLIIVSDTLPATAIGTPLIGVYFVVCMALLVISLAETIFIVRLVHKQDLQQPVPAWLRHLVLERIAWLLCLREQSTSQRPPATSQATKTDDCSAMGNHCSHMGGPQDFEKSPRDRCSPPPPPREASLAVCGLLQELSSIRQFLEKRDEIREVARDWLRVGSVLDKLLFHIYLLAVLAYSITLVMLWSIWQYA
Description: PDSP Primary Binding target: HTR3A - Compounds are tested at 10 uM concentration, plate are incubated at room temperature in the dark for 90 minutes. Reaction are stopped by vacuum filtration onto 0.3% polyethyleneimine soaked filter mats using Filtermate harvester. Scintilation cocktail is then melted onto microwave-dried filters on a hot plate and the radio activity is counted in Microbia counter.

5-hydroxytryptamine receptor 1D (Homo sapiens), sequence (P28221 whole entry): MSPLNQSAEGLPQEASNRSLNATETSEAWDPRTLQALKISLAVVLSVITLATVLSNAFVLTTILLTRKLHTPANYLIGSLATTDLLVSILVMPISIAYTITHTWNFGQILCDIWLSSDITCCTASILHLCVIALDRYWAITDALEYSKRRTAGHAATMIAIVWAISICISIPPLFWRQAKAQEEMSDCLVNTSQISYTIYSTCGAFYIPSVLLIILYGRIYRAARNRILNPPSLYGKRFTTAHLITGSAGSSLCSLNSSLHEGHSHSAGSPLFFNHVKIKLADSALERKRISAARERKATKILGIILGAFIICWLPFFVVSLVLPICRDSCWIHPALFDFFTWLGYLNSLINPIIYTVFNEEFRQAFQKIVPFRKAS
D(3) dopamine receptor (Homo sapiens), sequence (P35462 whole entry): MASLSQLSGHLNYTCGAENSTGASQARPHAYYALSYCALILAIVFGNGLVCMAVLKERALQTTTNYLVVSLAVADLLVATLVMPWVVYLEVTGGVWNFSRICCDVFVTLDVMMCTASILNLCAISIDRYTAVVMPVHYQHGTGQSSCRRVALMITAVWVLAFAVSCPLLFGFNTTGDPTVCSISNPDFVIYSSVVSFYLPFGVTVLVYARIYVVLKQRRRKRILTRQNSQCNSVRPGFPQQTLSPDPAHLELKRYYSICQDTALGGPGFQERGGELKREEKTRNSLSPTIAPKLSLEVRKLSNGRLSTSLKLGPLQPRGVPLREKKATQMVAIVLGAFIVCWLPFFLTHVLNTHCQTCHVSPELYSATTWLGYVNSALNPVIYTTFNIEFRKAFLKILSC
Beta-1 adrenergic receptor (Homo sapiens), sequence (P08588 whole entry, looked up): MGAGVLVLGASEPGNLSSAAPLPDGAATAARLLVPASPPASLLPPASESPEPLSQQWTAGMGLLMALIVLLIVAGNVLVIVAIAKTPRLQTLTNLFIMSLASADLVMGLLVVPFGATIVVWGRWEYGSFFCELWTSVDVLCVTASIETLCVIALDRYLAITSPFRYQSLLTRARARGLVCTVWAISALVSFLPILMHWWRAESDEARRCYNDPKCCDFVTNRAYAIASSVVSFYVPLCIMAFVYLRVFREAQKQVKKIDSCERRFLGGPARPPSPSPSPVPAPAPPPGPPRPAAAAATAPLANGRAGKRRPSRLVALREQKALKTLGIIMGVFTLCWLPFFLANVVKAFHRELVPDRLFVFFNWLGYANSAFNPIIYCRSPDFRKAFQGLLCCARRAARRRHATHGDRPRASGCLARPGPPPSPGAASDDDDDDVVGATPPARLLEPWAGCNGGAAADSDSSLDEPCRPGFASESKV
5-hydroxytryptamine receptor 6 (Homo sapiens), sequence (P50406 whole entry): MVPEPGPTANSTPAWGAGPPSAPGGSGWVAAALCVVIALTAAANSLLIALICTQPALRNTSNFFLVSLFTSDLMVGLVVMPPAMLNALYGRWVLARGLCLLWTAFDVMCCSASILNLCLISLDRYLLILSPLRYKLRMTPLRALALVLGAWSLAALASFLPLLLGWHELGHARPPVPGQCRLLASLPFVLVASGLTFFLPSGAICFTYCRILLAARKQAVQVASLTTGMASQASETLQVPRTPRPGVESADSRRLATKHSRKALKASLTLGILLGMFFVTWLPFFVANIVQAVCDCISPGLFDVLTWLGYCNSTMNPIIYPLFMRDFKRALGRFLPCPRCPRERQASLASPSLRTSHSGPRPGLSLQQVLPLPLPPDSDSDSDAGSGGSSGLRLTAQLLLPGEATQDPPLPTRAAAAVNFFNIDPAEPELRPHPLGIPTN
Mu-type opioid receptor (Homo sapiens), sequence (P35372 whole entry): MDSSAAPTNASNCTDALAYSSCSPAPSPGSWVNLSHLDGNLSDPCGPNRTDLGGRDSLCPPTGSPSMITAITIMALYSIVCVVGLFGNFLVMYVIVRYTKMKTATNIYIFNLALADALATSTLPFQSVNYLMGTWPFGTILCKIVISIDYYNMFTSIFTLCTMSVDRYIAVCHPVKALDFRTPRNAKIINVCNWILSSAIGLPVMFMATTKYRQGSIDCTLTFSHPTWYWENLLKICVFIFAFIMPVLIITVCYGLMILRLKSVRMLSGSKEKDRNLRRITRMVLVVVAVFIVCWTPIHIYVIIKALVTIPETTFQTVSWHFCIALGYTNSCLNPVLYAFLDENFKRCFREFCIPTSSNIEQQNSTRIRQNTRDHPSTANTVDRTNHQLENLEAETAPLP
Beta-3 adrenergic receptor (Homo sapiens), sequence (P13945 whole entry, looked up): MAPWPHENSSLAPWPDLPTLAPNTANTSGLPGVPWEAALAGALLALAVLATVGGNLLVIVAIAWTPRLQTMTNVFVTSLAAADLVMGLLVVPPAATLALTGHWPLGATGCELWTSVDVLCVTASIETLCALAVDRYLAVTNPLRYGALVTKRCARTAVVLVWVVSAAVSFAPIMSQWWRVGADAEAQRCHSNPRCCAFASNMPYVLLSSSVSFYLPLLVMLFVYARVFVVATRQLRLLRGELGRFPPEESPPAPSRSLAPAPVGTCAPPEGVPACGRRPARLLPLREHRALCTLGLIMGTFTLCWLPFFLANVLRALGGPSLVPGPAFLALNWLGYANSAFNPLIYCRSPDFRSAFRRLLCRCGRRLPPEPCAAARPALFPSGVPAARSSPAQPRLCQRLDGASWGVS
5-hydroxytryptamine receptor 2B (Homo sapiens), sequence (P41595 whole entry): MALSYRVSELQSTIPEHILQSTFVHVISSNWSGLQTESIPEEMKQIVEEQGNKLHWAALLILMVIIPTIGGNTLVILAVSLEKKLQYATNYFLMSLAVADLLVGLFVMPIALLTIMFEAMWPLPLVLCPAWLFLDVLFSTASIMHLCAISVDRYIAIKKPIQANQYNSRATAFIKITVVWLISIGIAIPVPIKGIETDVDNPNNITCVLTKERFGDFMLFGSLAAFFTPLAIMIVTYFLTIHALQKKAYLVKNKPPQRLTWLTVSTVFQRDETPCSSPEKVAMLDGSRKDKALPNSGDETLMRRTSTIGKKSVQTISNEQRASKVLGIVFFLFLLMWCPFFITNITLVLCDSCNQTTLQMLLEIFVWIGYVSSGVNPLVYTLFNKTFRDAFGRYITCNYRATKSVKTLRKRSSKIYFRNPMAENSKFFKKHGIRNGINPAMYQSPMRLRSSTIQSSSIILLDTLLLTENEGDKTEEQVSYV
5-hydroxytryptamine receptor 1E (Homo sapiens), sequence (P28566 whole entry): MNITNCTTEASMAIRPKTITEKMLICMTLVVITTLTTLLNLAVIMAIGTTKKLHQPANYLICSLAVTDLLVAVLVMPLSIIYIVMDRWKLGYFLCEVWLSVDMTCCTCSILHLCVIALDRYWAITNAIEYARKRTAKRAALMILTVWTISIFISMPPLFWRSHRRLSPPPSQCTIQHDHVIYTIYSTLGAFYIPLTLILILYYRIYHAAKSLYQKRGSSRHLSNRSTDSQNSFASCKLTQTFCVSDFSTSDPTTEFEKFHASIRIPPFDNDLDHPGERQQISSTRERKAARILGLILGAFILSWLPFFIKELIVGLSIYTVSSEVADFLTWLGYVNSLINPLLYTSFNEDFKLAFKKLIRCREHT
5-hydroxytryptamine receptor 2A (Homo sapiens), sequence (P28223 whole entry): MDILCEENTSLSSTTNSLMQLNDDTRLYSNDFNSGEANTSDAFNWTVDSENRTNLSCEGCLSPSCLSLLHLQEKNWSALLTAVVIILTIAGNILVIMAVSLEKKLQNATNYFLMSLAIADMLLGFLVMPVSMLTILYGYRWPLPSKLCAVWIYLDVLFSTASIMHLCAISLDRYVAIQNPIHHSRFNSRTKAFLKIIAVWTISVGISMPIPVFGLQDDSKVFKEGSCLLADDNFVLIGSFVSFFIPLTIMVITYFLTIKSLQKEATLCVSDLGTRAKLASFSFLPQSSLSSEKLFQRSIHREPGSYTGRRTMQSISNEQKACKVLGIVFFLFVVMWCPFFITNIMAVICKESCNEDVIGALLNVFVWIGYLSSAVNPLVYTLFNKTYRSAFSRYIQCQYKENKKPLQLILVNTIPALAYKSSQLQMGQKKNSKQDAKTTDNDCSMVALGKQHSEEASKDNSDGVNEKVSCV
Beta-2 adrenergic receptor (Homo sapiens), sequence (P07550 whole entry, looked up): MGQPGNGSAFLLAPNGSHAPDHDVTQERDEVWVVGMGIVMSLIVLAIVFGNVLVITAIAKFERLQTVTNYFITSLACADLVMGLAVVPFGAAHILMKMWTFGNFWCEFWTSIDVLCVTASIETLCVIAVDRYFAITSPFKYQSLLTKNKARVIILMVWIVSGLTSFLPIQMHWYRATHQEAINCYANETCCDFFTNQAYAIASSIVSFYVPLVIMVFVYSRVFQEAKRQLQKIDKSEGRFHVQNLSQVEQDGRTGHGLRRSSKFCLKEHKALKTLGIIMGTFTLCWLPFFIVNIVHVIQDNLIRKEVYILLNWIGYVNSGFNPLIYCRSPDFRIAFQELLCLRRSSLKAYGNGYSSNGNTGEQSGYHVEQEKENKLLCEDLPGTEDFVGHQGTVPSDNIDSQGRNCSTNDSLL
Sigma intracellular receptor 2 (Homo sapiens), sequence (Q5BJF2 whole entry): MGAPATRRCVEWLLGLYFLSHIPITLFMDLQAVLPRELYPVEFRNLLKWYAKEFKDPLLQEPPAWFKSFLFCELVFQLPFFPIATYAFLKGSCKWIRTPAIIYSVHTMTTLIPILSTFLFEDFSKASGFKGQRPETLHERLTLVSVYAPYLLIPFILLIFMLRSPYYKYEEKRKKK
D(1A) dopamine receptor (Homo sapiens), sequence (P21728 whole entry): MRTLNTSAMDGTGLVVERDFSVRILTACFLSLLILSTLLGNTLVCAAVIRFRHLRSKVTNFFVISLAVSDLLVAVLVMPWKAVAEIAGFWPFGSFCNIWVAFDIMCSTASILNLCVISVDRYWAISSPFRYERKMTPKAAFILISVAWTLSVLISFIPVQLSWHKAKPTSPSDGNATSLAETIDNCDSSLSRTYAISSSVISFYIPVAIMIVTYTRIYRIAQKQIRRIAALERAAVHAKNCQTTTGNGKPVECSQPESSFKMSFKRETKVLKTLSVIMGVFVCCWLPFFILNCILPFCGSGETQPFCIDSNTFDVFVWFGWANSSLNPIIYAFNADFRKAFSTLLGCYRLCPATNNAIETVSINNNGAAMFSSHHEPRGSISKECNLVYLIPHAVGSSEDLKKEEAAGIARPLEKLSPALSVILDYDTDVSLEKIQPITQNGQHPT

| Compound | inhibition [1] [%] | inhibition [2] [%] | inhibition [3] [%] | inhibition [4] [%] | inhibition [5] [%] | inhibition [6] [%] | inhibition [7] [%] | inhibition [8] [%] | inhibition [9] [%] | inhibition [10] [%] | inhibition [11] [%] | inhibition [12] [%] | inhibition [13] [%] | inhibition [14] [%] | inhibition [15] [%] | inhibition [16] [%] |
| --- | --- | --- | --- | --- | --- | --- | --- | --- | --- | --- | --- | --- | --- | --- | --- | --- |
| C[C@H](CO)Nc1nc(SCc2cccc(Cl)c2F)nc2[nH]c(=O)sc12 | 8.37 | -2.82 | -6.29 | 13.7 | -4.99 | 7.55 | -6.11 | -7.23 | 10.8 | -1.24 |  |  |  |  |  |  |
| N#Cc1cccc(C(=O)Nc2cc(-c3ccccc3)nn2-c2ccccc2)c1 | 1.08 | 3.6 |  | 30.4 | 3.88 | 6.53 | 2.3 | 6.69 | 6.88 | -5.54 | -0.39 | 2.45 | -8.91 |  |  |  |
| N#Cc1ccc2[nH]cc(CCCCN3CCN(c4ccc5oc(C(N)=O)cc5c4)CC3)c2c1 | 56.2 | 1.49 | 22.6 | 95.2 | 21.2 | 43 | 101 | 30.3 | 62.7 |  | 70 | 30.6 | 80.3 | 11.6 | 80 | 46.7 |
| Cc1nc(C(=O)N2CCC[C@H]2Cc2nnc(-c3ccccc3)o2)c(-c2ccccc2F)s1 | -2.08 | -9.02 | 7.87 | 45 | -8.85 | 8.26 | 92.6 | 17.4 | 7.98 | 23.9 |  | 29.8 | 12.9 |  |  | -1.8 |
| S=C(NCCCc1c[nH]cn1)NCCCN(Cc1ccc(Cl)c(Cl)c1)c1ccc(Br)cn1 | 40 | 60.7 | 61.5 | 62.3 | 7.46 | 85.2 | 94.5 | 74 | 28.7 |  | 97.5 | 87.6 | 97.7 | 49.2 | 149 | 33.5 |
| CN1C(=O)[C@@H](NC(=O)c2cc3ccccc3[nH]2)N=C(c2ccccc2)c2ccccc21 | 4.31 | 5.19 | 7.2 | 26.4 | -6.92 | 19.7 | 78.4 | 25.7 | 5.76 |  | 11.2 | -5.02 | 8.74 | 13.8 | 23.2 | 2.09 |
| COc1ccc(S(=O)(=O)c2cc(OC)ccc2S(=O)(=O)c2ccc([C@H](C)NS(C)(=O)=O)cc2)cc1 | -1.6 | -2.24 | 0.39 | 73.4 | -6.16 | 31.9 | 23.7 | 96.5 | 11.3 | 1.41 | -4.09 | -5.9 | 32.1 |  |  | -2.2 |

— ChEMBL document CHEMBL5442219
